According to PubChem BioAssay (NCI):
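All cell lines were grown in 96-well plates and treated with compound for 48 hours. GI50 = concentration required for 50% inhibition of growth. The concentration for full growth arrest is given as TGI.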

Tests used:
Experiment in all cases: DTP human tumour cell line panel, 48 h
SF-295 CNS = tested on: SF-295 CNS
UACC-257 melanoma = tested on: UACC-257 melanoma
RPMI-8226 leukemia = tested on: RPMI-8226 leukemia
SF-268 CNS = tested on: SF-268 CNS
OVCAR-4 ovarian = tested on: OVCAR-4 ovarian
SF-539 CNS = tested on: SF-539 CNS
HS 578T breast = tested on: HS 578T breast
T-47D breast = tested on: T-47D breast
MDA-MB-231 breast = tested on: MDA-MB-231 breast
PC-3 prostate = tested on: PC-3 prostate

Row | Structure (SMILES) | TGI (SF-295 CNS) [µM] | TGI (UACC-257 melanoma) [µM] | TGI (RPMI-8226 leukemia) [µM] | TGI (SF-268 CNS) [µM] | TGI (OVCAR-4 ovarian) [µM] | TGI (SF-539 CNS) [µM] | TGI (HS 578T breast) [µM] | TGI (T-47D breast) [µM] | TGI (MDA-MB-231 breast) [µM] | GI50 (HS 578T breast) [µM] | GI50 (SF-295 CNS) [µM] | GI50 (T-47D breast) [µM] | GI50 (PC-3 prostate) [µM] | TGI (PC-3 prostate) [µM] | GI50 (UACC-257 melanoma) [µM] | GI50 (RPMI-8226 leukemia) [µM] | GI50 (MDA-MB-231 breast) [µM] | GI50 (SF-268 CNS) [µM] | GI50 (SF-539 CNS) [µM] | GI50 (OVCAR-4 ovarian) [µM]
1 | C/C=C/C1(NS(=O)(=O)c2ccc(C)cc2)CCC(C(C)(C)C)CC1 (configuration not stated) | 61.4 | 56 | 47.1 | 59.5 | 48.4 | 44.1 |  |  |  |  |  |  |  |  |  |  |  |  |  | 
2 | O=C(CC1C(=O)Nc2ccccc2S1=O)Nc1cccc(Cl)c1 (configuration not stated) | > 100 | > 100 | > 31 | > 100 | > 100 | 43.7 | > 100 | 42.7 | 34.4 |  |  |  |  |  |  |  |  |  |  | 
3 | O=C(/C=N/O)c1c(-c2ccccc2)[nH]c(-c2ccccc2)c1-c1ccccc1 | 34.2 | 35 | 31.4 | 49.7 | 42.9 | 26.9 | 85.2 | > 100 | 28.7 |  |  |  |  |  |  |  |  |  |  | 
4 | CC1=C(C)C(=O)C(C(C)C2=C(C)C(=O)C(C)=C(C)C2=O)=C(C)C1=O | > 100 | > 100 | 31.6 | 49.7 |  | > 100 | > 100 | 26.4 | 30.4 | 29.2 | 15.1 | 12.8 | 20.9 | > 100 | 33.5 | 7.09 | 13.8 | 18.7 | 23.7 | 
5 | NS(=O)(=O)c1ccc(-n2nc(-c3ccc(Cl)cc3)cc2C2=CC(=O)C=CC2=O)cc1 | 63.2 | 42.9 | 33.4 | 50.4 |  | 45.4 | 72.6 |  | 32 | 23.8 | 25.1 |  | 19.4 | 56.2 | 19.9 | 6.86 | 13.7 | 24.6 | 21.5 | 
6 | CC(C)(C)c1cc(C(O)(C(F)(F)F)C(F)(F)F)c2c(c1)C(C(F)(F)F)(C(F)(F)F)OC(c1ccccc1)(C(C)(C)C)N2 (configuration not stated) | 19.8 | 19.7 | 12.1 |  | 46.3 | > 100 |  |  |  |  |  |  |  |  |  |  |  |  |  | 
7 | C=C1C(=O)O[C@H]2[C@H]1CC/C(Cn1cc(CCC)nn1)=C\CC[C@@]1(C)O[C@@H]21 | 39.2 |  | 27.1 | 28.4 | 22.7 | 22.5 | 69.6 | 21.3 | 16.3 | 23.4 | 18.5 | 4.11 | 14.9 | 29.4 |  | 5.52 | 4.22 | 13.7 | 8.87 | 9.46
8 | O=Cc1cc(O)c(O)c(O)c1-c1c(C=O)cc(O)c(O)c1O | > 100 | > 100 | > 100 | > 100 | > 100 | > 100 |  |  |  |  |  |  |  |  |  |  |  |  |  | 
9 | CC(=O)OCCOCNC(=S)N/N=C(\C)c1ccco1 | > 100 | > 100 |  | > 100 | > 100 | > 100 |  |  |  |  |  |  |  |  |  |  |  |  |  | 
10 | CCN(CCCl)CCNc1c2ccccc2nc2ccc(OC)cc12 | 4 | 3.73 | 1.37 | 2.59 | 3.24 | 2.34 |  |  |  |  |  |  |  |  |  |  |  |  |  | 
11 | O=S1(=O)CSc2ccc3ccccc3c2-c2c1ccc1ccccc21 | > 100 | > 100 |  | > 100 | > 100 | > 100 |  |  |  |  |  |  |  |  |  |  |  |  |  | 
12 | CCOC(=O)C(=Cc1ccccc1Br)C(=O)OCC | 8.88 | 14.7 | > 100 | 29.1 | 16.5 | 8.32 | 30.9 |  | 36.9 |  |  |  |  | 14.9 |  |  |  |  |  | 
13 | O=C(/C=C/c1ccccc1F)C(c1ccccc1)c1ccccc1 | 5.91 | 17.7 | > 100 | 11.3 |  | 5.48 |  |  |  |  |  |  |  |  |  |  |  |  |  | 
14 | COc1ccccc1NC(=O)C1=C(C)NC(C)=C(C(=O)Nc2ccccc2OC)C1c1ccc(C(C)C)cc1 | > 100 | > 100 | > 100 | > 100 | > 100 | > 100 |  |  |  |  |  |  |  |  |  |  |  |  |  | 
15 | C[C@H](NC(=O)OC1C2C=CC(O)C1CC2)c1ccccc1 (some centres not stated) | > 100 | > 100 | 48.6 | > 100 | > 100 | > 100 |  |  |  |  |  |  |  |  |  |  |  |  |  | 
16 | Cc1ccc(S(=O)(=O)N2CCCCC2CCO)cc1 (configuration not stated) | > 100 | > 100 | > 100 | > 100 | > 100 | > 100 |  |  |  |  |  |  |  |  |  |  |  |  |  | 
17 | Cn1cc(C(=O)C2CCCCC2)ccc1=O | > 100 |  | > 100 | > 100 | > 100 | > 100 |  |  |  |  |  |  |  |  |  |  |  |  |  | 
18 | CCOC1NC(=O)Oc2ccccc21 (configuration not stated) | > 100 | > 100 |  | > 100 | > 100 | > 100 | > 100 |  | > 100 |  |  |  |  | > 100 |  |  |  |  |  | 
19 | Cc1cc(Cl)ccc1N1C(=O)C(=O)C(c2nc3ccccc3s2)C(=O)C1=O | > 100 | > 100 | > 100 | > 100 | > 100 | > 100 |  |  |  |  |  |  |  |  |  |  |  |  |  | 
20 | O=C1/C(=C/c2ccc(O)cc2)CCC1CNc1ccc(Cl)cc1 (configuration not stated) | 16.7 | 11.7 | 10.8 | 19.8 | 8.86 | 15.5 | > 100 |  | 9.56 |  |  |  |  | 18.2 |  |  |  |  |  | 
21 | CCCNc1nc(-c2ccc(OC)cc2)nc2ccccc12 | 32.2 |  | 22.6 | 38.8 | > 100 |  | 42.9 | > 100 |  | 17.9 | 15.7 | 31.4 | 14.9 | 46.5 |  | 3.96 |  | 16.3 |  | 41
22 | O=C1c2cc3c(cc2-c2c1c1ccc([N+](=O)[O-])cc1c(=O)n2CCCCl)OCO3 | > 100 |  | > 26.6 | > 100 | > 100 |  | > 100 | > 100 | > 24.9 | > 100 | 0.066 |  | 2.4 | > 100 |  | 0.275 |  | 0.102 | 0.145 | 7.34
23 | CC(=O)O[C@H]1CC[C@@]2(C)C(=CC[C@@H]3C2CC[C@]2(C)Nc4oncc4CC32)C1 (some centres not stated) | > 100 | > 100 | 43.8 |  | 34.4 | > 100 |  |  |  |  |  |  |  |  |  |  |  |  |  | 
